Test system: peritoneal leukocyte
Experiment: Peritoneal leukocyte count in mice after intraperitoneal injection
Format: in vivo
Conditions: 3% thioglycollate (positive control)

Substance: thioglycollate
- Number of Lymphocyte (mean ± S.E.): 0.86 ± 0.14 ×10^6 cell/ml

Source: patent US20090253650A1, “Teat antiseptic prepared from polysaccharide gel with bactericidal and immuno-stimulating activity isolated from durian fruit-rind” (priority 2008, published 2009)
